From patent US6509369B2, “Anti-inflammatory compounds” (Ortho-McNeil Pharmaceutical, Inc., priority 1997, dated 2003)

Assays:
[1] = test system: TPA-induced ear edema in albino male CD1 mice; assay: TPA (phorbol ester)-induced ear edema; format: in vivo; details: dose 1%, topical mouse ear, 5.5 hours after TPA
Protocol: Several triphenylpropanamide compounds of this invention, having varying affinities for the human glucocorticoid receptor, were tested for topical antiinflammatory activity in mouse ear inflammation models. […] Compounds having receptor affinities closer to hydrocortisone were as nearly active as hydrocortisone in suppressing mouse oxazolone-induced contact hypersensitization (MOCH) and phorbol ester-induced ear edema. The in vivo studies of this example were conducted as follows.
Albino male CD1 mice, 7-9 weeks old were used in this example. A 0.005% (w/v) TPA or 20% (w/v) arachidonic acid (AA) solution was made in acetone. A 20 μl volume of the TPA or AA was applied to the dorsal left ear of the mouse. Compounds of this invention were placed in a composition containing ethanol/propylene glycol at a ratio of 70:30 were applied to the left ear of each mouse in an amount of 20 μl immediately after application of the TPA or AA. The right ear was not treated. The mice were sacrificed by carbon dioxide inhalation 5.5 hours after administration of TPA and one hour after administration of AA, the left and right ears were removed and a 7 mm biopsy was removed from each ear and weighed. The difference in biopsy weights between the right and left ears was calculated. Antiinflammatory effects of compounds were evident as an inhibition of the increase in ear weight.

[2] = test system: human progesterone receptor (hPR); assay: human progesterone receptor binding assay (displacement of 3(H) R5020 Promegestone)
Protocol: A human progesterone receptor binding assay was performed in order to determine selectivity of the compounds, as follows. Human progesterone receptors were prepared from either insect cells (SF21) infected with baculovirus hPR A, or from a breast cancer cell line, T47D, which expresses high levels of endogenous hPR. The receptor binding reactions, with or without test compounds, were set up in 96-well microtiter plates which were previously siliconized with SIGMACOTE. The binding components, 3(H) R5020 Promegestone, a high affinity ligand for the progesterone receptors, glycerol/molybdate-containing buffer and unlabeled compounds were added to the wells using a combination of BIOMEK laboratory automation system and repeat pipettes. After overnight incubation, the samples were precipitated with polyethylene glycol and filtered through Whatman GF/F paper using a TOMTEK cell harvester. The filter mate with 96 samples were bound to a solid-phase scintillant and directly counted in the BETAPLATE counter. Only those compounds that were active in the human glucocorticoid receptor assay set forth in Example 30 were used for progesterone receptor binding to determine cross-reactivity profiles, if any. The activity of test compounds to displace 3(H) R5020 binding to hPR is expressed as percent inhibition at the two concentrations, 10^−6 and 10^−5 Molar.

[3] = target: T1, human glucocorticoid receptor (hGR) (Homo sapiens, UniProt P04150); assay: human glucocorticoid receptor binding assay (displacement of 3(H) Triamcinolone acetonide)
T1 construct: made in house; host or cells: Sf21 insect cells infected with baculovirus hGR, OR IM9 lymphoblast cell line (endogenous hGR)
T1 sequence (P04150 1-777): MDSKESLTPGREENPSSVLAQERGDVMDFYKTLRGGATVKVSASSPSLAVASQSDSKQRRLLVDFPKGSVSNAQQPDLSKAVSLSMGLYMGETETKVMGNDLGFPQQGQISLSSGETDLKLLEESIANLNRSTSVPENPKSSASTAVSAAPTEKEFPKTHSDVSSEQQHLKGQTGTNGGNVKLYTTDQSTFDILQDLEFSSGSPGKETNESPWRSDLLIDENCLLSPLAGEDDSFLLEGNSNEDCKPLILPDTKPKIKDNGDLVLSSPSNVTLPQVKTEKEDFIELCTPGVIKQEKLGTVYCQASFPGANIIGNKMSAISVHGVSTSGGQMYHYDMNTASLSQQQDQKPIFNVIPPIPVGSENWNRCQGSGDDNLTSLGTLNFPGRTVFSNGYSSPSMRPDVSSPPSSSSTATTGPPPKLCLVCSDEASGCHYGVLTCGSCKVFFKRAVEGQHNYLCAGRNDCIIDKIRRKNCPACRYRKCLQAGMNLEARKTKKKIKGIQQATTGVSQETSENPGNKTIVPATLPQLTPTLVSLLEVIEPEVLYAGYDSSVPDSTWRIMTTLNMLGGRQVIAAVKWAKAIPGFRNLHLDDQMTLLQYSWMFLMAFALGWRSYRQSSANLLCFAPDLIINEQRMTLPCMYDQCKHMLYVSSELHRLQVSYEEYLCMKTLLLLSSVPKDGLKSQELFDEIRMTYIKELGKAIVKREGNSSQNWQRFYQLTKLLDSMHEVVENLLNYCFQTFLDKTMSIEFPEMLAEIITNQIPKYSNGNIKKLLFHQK

[4] = test system: oxazolone-induced ear swelling (MOCH) in albino male CD-1 mice; assay: mouse oxazolone-induced contact hypersensitization (MOCH) ear swelling; format: in vivo; details: for Oxazolone Ear swelling % Inhibition vs. Vehicle: topical mouse ear; for dose-related activity in the oxazolone model (in words) / topical antiinflammatory activity in the oxazolone model (in words): topical; for dose-related activity in the oxazolone model (in words): doses 0.1-3%; for topical antiinflammatory activity in the oxazolone model (in words): mouse ear
Procedure, shortened: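 Male CD-1 mice aged 7–9 weeks were sensitised on the abdomen with 3% oxazolone on Day 0 and challenged on Day 5 with 2% oxazolone on the left ear. Compounds in ethanol/propylene glycol 70:30 were applied topically to that ear 1 h after challenge. At 24 h, the weight difference between 7 mm left and right ear biopsies gave the measure of inhibition.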

SMILES: O=C(Cc1cccs1)NCC(c1ccccc1)C(c1ccccc1)c1ccccc1 (centres unmarked) [Compound 29, N-(2-thiophrne)acetyl-2,3,3-triphenylpropylamine]
- % Inhibition of TPA Ear Edema vs. Vehicle [1]: 64.9%
- hPR % inh 10 μM [2]: 28.3%
- IC50 [3]: 8 nM
- Oxazolone Ear swelling % Inhibition vs. Vehicle ([4]; Experiment 1, dose 0.1%): 4.3%
- Oxazolone Ear swelling % Inhibition vs. Vehicle ([4]; Experiment 1, dose 0.3%): 34.7%
- Oxazolone Ear swelling % Inhibition vs. Vehicle ([4]; Experiment 1, dose 1%): 49.9%
- Oxazolone Ear swelling % Inhibition vs. Vehicle ([4]; Experiment 1, dose 3%): 66.5%
- dose-related activity in the oxazolone model (in words) [4]: inhibited ear swelling in a dose-dependent manner
- topical antiinflammatory activity in the oxazolone model (in words) [4]: equiactive with hydrocortisone

SMILES: Cc1ccc(CC(=O)NCC(c2ccccc2)C(c2ccc(F)cc2)c2ccc(F)cc2)s1 (centres unmarked) [Compound 32]
- % Inhibition of TPA Ear Edema vs. Vehicle [1]: 60.0%
- IC50 [3]: 7 nM
- Oxazolone Ear swelling % Inhibition vs. Vehicle ([4]; Experiment 2, dose 0.1%): 11.2%
- Oxazolone Ear swelling % Inhibition vs. Vehicle ([4]; Experiment 2, dose 0.3%): 18.95%
- Oxazolone Ear swelling % Inhibition vs. Vehicle ([4]; Experiment 2, dose 1%): 31.45%
- Oxazolone Ear swelling % Inhibition vs. Vehicle ([4]; Experiment 2, dose 3%): 36.5%
- dose-related activity in the oxazolone model (in words) [4]: inhibited ear swelling in a dose-dependent manner
- topical antiinflammatory activity in the oxazolone model (in words) [4]: equiactive with hydrocortisone

SMILES: C[C@]12CCC(=O)C=C1CC[C@@H]1[C@@H]2[C@@H](O)C[C@@]2(C)[C@H]1CC[C@]2(O)C(=O)CO [hydrocortisone, reference compound]
- % Inhibition of TPA Ear Edema vs. Vehicle [1]: 80.6%
- Oxazolone Ear swelling % Inhibition vs. Vehicle ([4]; Experiment 1, dose 1%): 78.9%
- Oxazolone Ear swelling % Inhibition vs. Vehicle ([4]; Experiment 2, dose 1%): 58.2%
